Reference: patent publication US20040091479A1, “T-cell epitope of the papillomavirus l1 and e7 protein and use thereof in diagnostics and therapy” (priority 2000, published 2004)

Experiments:
[1] = tested on: T cell lines directed against HPV18 E7; test: ELISpot of T cell lines induced with HPV18 E7-loaded dendritic cells; format: cell-based, human; details: E7 protein-induced and E7 peptide pool-induced T cell lines; epitope-loaded DC; FIG. 18 top
Protocol: 1×10^4 stimulator cells (K-A2 cells, that is K-562 cells (ATCC CCL-243) were transfected with an HLA A2 expression vector, PBMC or dendritic cells) were sown, in 60 μl of medium (RPMI 1640, 0.4% human albumin), in one well of a 96-well round-bottomed cell culture plate and loaded overnight with 50 μg of peptide/ml. On the following day, 5×10^4 T cells, in 60 μl of medium (containing 10 U each of IL-2 and IL-7/ml), were added to each well and the plate was incubated for 4 hours. A Millipore nitrocellulose HA plate was coated overnight, at 4° C., with the anti-human IFN-γ monoclonal antibody 1-Dlk (10 μg/ml in PBS, 60 μl/well, Hölzel Diagnostika, Cologne). On the following day, the plate was washed 3 times for in each case 5 min with 150 μl of sterile PBS per well and then blocked with medium for 1 hour at 37° C. The blocking medium was removed and the cells were transferred from the round-bottomed cell culture plate to the filter plate and then incubated for a further 20 to 22 hours. After that, the cells and the medium were removed and the filter plate was washed 6 times for 2 min with PBS/Tween 20 (0.05%). The antibody Ab-7-B6-1-biotin was then added (2 μg/ml in PBS/BSA, 60 μl/well, Hölzel Diagnostika) and the plate was incubated at 4° C. overnight. […] The spots were counted using a ZEISS-VISION (Halbergmoos) ELISpot readout system. […]

[2] = tested on: TIL from an HPV18- and HLA-A2-positive patient; test: ELISpot of tumor-infiltrating lymphocytes with peptide-loaded K-A2 cells; format: cell-based, human; details: peptide-loaded K-A2 stimulators; FIG. 18 bottom
[3] = tested on: human T cells; test: Summary of examples 3 to 18: epitopes recognized by human T cells; format: cell-based; details: Table 4, HPV18 peptides, species human; MHC restriction
[4] = tested on: T cell line generated with HeLa CD80/HLA-A2 transfectants (H7.1-A2); test: IFN-γ ELISpot of H7.1-A2-specific T cell line against peptide-loaded autologous PBMC; format: cell-based, human; details: H7.1-A2-induced T cell line, FIG. 17 top
[5] = tested on: autologous peptide-loaded BLCL; test: Cytotoxicity test (chromium release assay) of HPV18 E786-94-specific T cells; format: cell-based, human; details: effector to target ratio of 30:1, FIG. 17 bottom
Protocol: The predicted peptides were synthesized using standard methods (F moc method). […] For this, 1×10^5 PBMC derived from healthy, HLA-A2-positive donors were sown, in 100 μl of medium (RPMI 1640, 10% heat-inactivated AB plasma), in each well of a 96-well plate. 20 μg of peptide/ml were added to the culture medium. The cells were incubated at 37° C. and restimulated once per week with irradiated peptide-loaded autologous PBMC. The stimulator PBMC were incubated for 4 hours in medium containing 20 μg of peptide/ml. After the irradiation, they were diluted down to 1×10^4/100 μl with medium and added to the peptide-stimulated PBMC. For this, half the medium was aspirated from each well and 100 μl of the stimulator PBMC suspension were added. 10 U of IL-2/ml and 10 U of IL-7/ml were added from the 3rd stimulation onwards. From the 5th stimulation onwards, restimulation was carried out in the same manner using peptide-loaded autologous B lymphoblast cell lines (BLCL).
The cytotoxicity of HPV18 E786-94-specific T cells was determined in a chromium release assay. Autologous BLCL were used as the target cells. In each case, 5×10^5 cells were taken up in 100 μl of medium (RPMI 1640, 10% FCS) and treated with 20 μl of ^51chromium (NEN). For loading the BLCL with peptide, 50 μg of the corresponding peptide were added/ml. After that, the cells were incubated at room temperature for 2 hours while being carefully resuspended every 20-30 min. The cells were then washed 3 times with 5 ml of medium. For the sedimenting, the cells were in each case centrifuged at 1500 rpm for 5 min and then carefully resuspended. […]
The assay samples were incubated for 4 hours at 37° C., 98% atmospheric humidity and 5% CO2. […] On the following day, 150 μl of Microscint 40 scintillation fluid (Canberra-Packard, Deieich) were added and the numbers of distintegrations per minute in the individual assay samples were measured in the scintillation counter (Topcount, Canberra-Packard, Dreieich).
The specific lysis was calculated using the following formula: […]

FQQLFLNTL [HPV18 E786-94, HPV18 E7 86-94]
epitope-specific T cells in ELISpot assay [1]: detected in both T cell lines | ELISpot reaction of TIL populations [2]: marked reaction | Haplotype [3]: HLA-A2 | IFN-γ ELISpot reaction [4]: specific reaction | specific lysis [5]: approx. 20%
